The source of these data is paper PMC7395176, “Retromer stabilization results in neuroprotection in a model of Amyotrophic Lateral Sclerosis” (Nature Communications, 2020).

Experiment [1] has as its target T1, VPS35 (Mus musculus, UniProt Q9EQH3+Q9QZ88). Briefly: Cycloheximide (CHX) chase assay of VPS35 degradation in Neuro2a cells. Type of experiment: cell-based. More on the design: We incubated Neuro2a cells with compounds 2a–6a (10 µM); endogenous in cells; host or cells: Neuro2a (ATCC CCL-131). The note with it: 10 µM 24 h pretreatment, CHX up to 8 h. Here is the method: We next measured VPS35 degradation rates by a cycloheximide (CHX) chase assay. Neuro2a cells received vehicle or compound 2a (10 µM) for 24 h, then CHX was added and VPS35 levels were measured by WB.
Cycloheximide (CHX) assay was done on Neuro2a cells seeded in 6-well plates and incubated with compound 2a (10 µM) or vehicle for 24 h. We next added CHX (Sigma–Aldrich) at 10 µg/mL and cells were collected at 0, 2, 4, and 8 h for the time-course assay of VPS35 levels by WB.
Compound 2a stabilizes VPS35 levels in Neuro2a cells
A cycloheximide (CHX) chase assay was performed to determine the degradation rate of VPS35 in Neuro2a cells (3x10^5 cells/well). Cells were treated with vehicle or 2a (10 µM) for 24 h, and then chased with CHX (10 µg/mL) for 2, 4 and 8h.
WBs for VPS35 and β-Actin levels. Quantifications of normalized VPS35 levels (means normalized ratios ± SEM versus the time 0) are shown inpanel b (vehicle: n=10 independent wells, 2a: n=8 independent wells obtained from 3 independent experiments; control vs. 2a at 8 hours: p=0.009). c, quantitative real time PCR for Vps35, Vps26 and Vps29 mRNA (Vps35: controls n=8 independent wells; 2a: n=9 independent wells; Vps26 and Vps29: n=9 independent wells/group); data were collected from 3 independent experiments. […]

The next experiment relates to Sortilin. Briefly: Sortilin fluorescence in MNs of treated G93A mice. Type of experiment: in vivo. The note with it: 10 mg/kg, day 100. From the text: We next asked whether increasing VPS35/26 protein levels is sufficient to increase retromer functionality. CI-MPR is unstable in VPS26-knockout cells, and we observed a substantial reduction of CI-MPR MFI levels in MNs of vehicle-treated G93A mice compared with WT litters (Fig. 6c). […] Sortilin encodes a receptor belonging to the Vps10 family involved in Frontotemporal Dementia (FTD)[45], which shares functional homologies with MPRs and is another retromer cargo[46].
Fluorescence intensity levels of VPS35, VPS26, CI-MPR, Sortilin, CTSD and Ubiquitin were calculated using NHI-Image J software (US National Institutes of Health) according to the following protocol: stacks of confocal images were used to generate the maximal projections using the Leica Application Suite X (2.0.0.14332) software and then postprocessed by NHI-Image J to crop single NeuN^+ MNs from the ventral horn of the spinal cord. We next performed background (calculated on adjacent slices only receiving secondary antibodies) subtraction for each channel, before applying the NHI-Image J mean filter (with radius 2.0 pixels) to calculate mean NeuN fluorescence levels in individual MNs. Using this approach, we established a region of interest (ROI) to gate single MNs. On this ROI, we measured mean fluoresce levels (MFI) of target proteins.

For experiment [2], the system named is SOD1^G93A-transfected Neuro2a cells. Briefly: LDH-Glo cytotoxicity assay in SOD1G93A-transfected Neuro2a cells. Type of experiment: cell-based. The note with it: 10 µM. From the text:
Having observed a marked improvement of viability in SOD1^G93A-transfected Neuro2a cells with VPS35 gain of function, we investigated the effect of VPS35 loss of function. We transfected Neuro2a cells with RNAi plasmids encoding a siRNA duplex for VPS35, to knockdown VPS35 and disrupt the retromer assembly. […] By including Sh56 plasmids in the transfection mix, we worsened this phenotype (Fig. 3d). […] We next assayed cytotoxicity by measuring lactate dehydrogenase (LDH) release with a LDH-Glo™ cytotoxicity assay. Cells were treated with plasmids encoding SOD1^G93A and the Sh56-RNAi sequence with or without compound 2a, while supernatants were used to measure LDH contents. Overexpression of SOD1^G93A increased LDH release by Neuro2aA cells, when compared with control cells (Fig. 3e).
LDH cytotoxicity was run on 96-well plates using LDH-Glo™ Cytotoxicity Assay (Promega). Briefly, Neuro2a cells were transfected with plasmids encoding pCMV-LacZ; pcDNA3.1(+)SOD1G93A[77] with or without VPS35 short interfering plasmids (Sh56) or compound 2a (10 µM). […] In each experiment we calculated %cytotoxicity=Exp.LDHrelease−mediumbackground/MaxLDHreleasecontrol−mediumbackground , and we run parallel positive controls treating cells with 200 µM H2O2. […]

Experiment [3] has as its target T1, VPS35. As to conditions: Neuro2a cells, 10 µM, 48 h, WB.
Procedure: Protein extracts were collected, separated by SDS-PAGE and immunoblotted for VPS35 and the housekeeping gene β-Actin.
Neuro2a cells (ATCC® CCL-131™) were seeded in Dulbecco’s modified Eagle’s media (DMEM, Gibco) supplemented with FBS 10% (Gibco), L-glutamine (Gibco) 2 mM and penicillin/streptomycin 1% (Gibco). Depending on the experimental setting, we used 6-well, 12-well or 96-well dishes. Neuro2a were grow at 37 °C in a humidified 5% CO2 atmosphere. All experiments were carried out at least in triplicate. Compounds and transfections were done on cells showing 60–70% of confluence. Compounds were usually kept on cells for 48 h; Bortezomib (BTZ) was used at 10 nM for 6 h to inhibit proteasome.
Protein lysates from cells cultures were collected from plates receiving PBS 1× washing and subsequently the lysis buffer followed by sonication. Protein concentrations were measured by BCA protein assay kit (Thermofisher) according to the manufacturer’s recommendations. Ten µg of protein extract was loaded on 10% Mini-PROTEAN TGX Stain-Free precast gels for PAGE (Bio-Rad). Gel electrophoresis was performed at 100 V for 2 h. Gels were transferred on Immobilon®-P PVDF membrane according to the manufacturer’s instructions (Millipore). Blots were blocked in 5% BSA in Tris buffered saline plus 0.1% Tween-20 (TBS-T) for 1 h before receiving primary antibodies: goat α-VPS35 1:800 (ab10099, Abcam); rabbit α-VPS26 1:1000 (ab23892 Abcam), rabbit α-VPS26b 1:1000 (15915-1-AP, ProteinTech); rabbit α-VPS29 1:1000 (ab236796 Abcam); mouse α-βActin 1:25000 (Sigma–Aldrich); mouse α-Golgin97 1:1000 (Invitrogen); mouse α-Ubiquitin 1:500 (Merk); rabbit α-CD14 1:1000 (Bioss Inc); mouse α-Tubulin 1:5000 (Immunological Sciences MAB-80143) overnight at 4 °C on shaker. Following several washes with TBS-T, blots were incubated in appropriate HRP-labeled secondary antibodies (Bio-Rad) for 1 h at room temperature. Visualization of protein bands was obtained using ClarityMax-ECL (Bio-Rad) according to the manufacturer’s instructions and images were acquired on ChemiDoc (Bio-Rad). Quantifications were done using the Image Lab 6.0.1 software (Bio-Rad).

For `NC(N)=N/N=C/c1cccc(/C=N/N=C(N)N)c1` [compound 2a, phenyl-1,3-bis-guanylhydrazone], the “VPS35 degradation in CHX chase” value at VPS35 [1] is given as “protected VPS35 from degradation”. Also, in the experiment on Sortilin, the “Sortilin MFI levels in MNs” value is on record as “significantly increased”. Also, the LDH release entry in experiment [2] (Neuro2a transfected with SOD1G93A and Sh56 plasmids) was “high LDH release was observed”; in experiment [2] (SOD1G93A-transfected Neuro2a, 48 h) it was “significantly reduced LDH release”. For the same molecule, the VPS35 levels result on VPS35 [3] is listed as “increased VPS35 levels”.
